Results as given in patent publication US10793568B2, “Hormone receptor modulators for treating metabolic conditions and disorders” (ARDELYX, INC., priority 2016, dated 2020).

Key:
[1] = biological target: human Farnesoid X receptor ligand-binding domain/Gal4 DNA binding domain chimera (Homo sapiens (Human), UniProt Q96RI1); experiment: Cell-based assay of FXR activation (FXR-UAS-bla HEK 293T beta-lactamase reporter); settings: cellular FXR beta-lactamase reporter assay; for Emax: HEK-293T, extent of activation relative to GW4064, read-out: % Efficacy; for EC50: FXR-UAS-bla HEK 293T cells, 16 h, pEC50 = -log EC50
human Farnesoid X receptor ligand-binding domain/Gal4 DNA binding domain chimera, sequence (Q96RI1 262-486, change not shown): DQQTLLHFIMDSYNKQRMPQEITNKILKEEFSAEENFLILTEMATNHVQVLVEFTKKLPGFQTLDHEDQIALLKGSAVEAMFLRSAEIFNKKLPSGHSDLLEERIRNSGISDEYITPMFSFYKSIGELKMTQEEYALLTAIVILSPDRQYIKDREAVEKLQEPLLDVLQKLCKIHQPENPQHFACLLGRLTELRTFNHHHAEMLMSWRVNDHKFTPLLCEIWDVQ
human Farnesoid X receptor ligand-binding domain/Gal4 DNA binding domain chimera, sequence (P04386 1-147 partner): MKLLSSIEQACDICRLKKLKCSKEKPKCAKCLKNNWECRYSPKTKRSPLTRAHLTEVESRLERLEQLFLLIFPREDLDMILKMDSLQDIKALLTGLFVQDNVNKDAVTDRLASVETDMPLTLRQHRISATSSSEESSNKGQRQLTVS
In short: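 HEK 293T cells stably expressing a Gal4-fused human FXR LBD and a UAS-driven beta-lactamase reporter were incubated with serially diluted compounds for 16 h at 37 °C in phenol red-free DMEM with 2% charcoal-stripped FBS. CCF4 FRET read-out: excitation 409 nm, emission 447 nm. pEC50 comes from a 3-parameter logistic fit, and efficacy is given as % of GW4064.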

[2] = biological target: ligand binding domain of human FXR (Homo sapiens (Human), UniProt Q96RI1); experiment: FXR ligand binding assay (LanthaScreen TR-FRET, SRC2-2 peptide recruitment); settings: for pEC50: -log EC50, concentration required to produce 50% activation; for Emax: extent of activation relative to GW4064, read-out: % Efficacy
ligand binding domain of human FXR, sequence (Q96RI1 262-486): as the sequence (Q96RI1 262-486, change not shown) above

| SMILES | Emax [1] [%] | EC50 [1] [nM] | pEC50 [2] | Emax [2] [%] |
| --- | --- | --- | --- | --- |
| N#Cc1cc(C(=O)O)ccc1N1C[C@@H]2C[C@H]1C[C@H]2OCc1c(-c2c(Cl)cccc2Cl)noc1C1CC1 [Compound I-102, 3-cyano-4-[(1S,4S,5R)-5-{[5-cyclopropyl-3-(2,6-dichlorophenyl)-1,2-oxazol-4-yl]methoxy}-2-azabicyclo[2.2.1]heptan-2-yl]benzoic Acid] | 106 | 0.794 | 8.6 | 112 |
| O=C(O)c1ccc(N2C[C@@H]3C[C@H]2C[C@H]3OCc2c(-c3c(Cl)cccc3Cl)noc2C2CC2)cc1F [Compound I-103, 4-[(1S,4S,5R)-5-{[5-cyclopropyl-3-(2,6-dichlorophenyl)-1,2-oxazol-4-yl]methoxy}-2-azabicyclo[2.2.1]heptan-2-yl]-2-fluorobenzoic Acid] | 103 | 0.794 | 8.7 | 135 |
| O=C(O)c1c(F)cc(N2C[C@@H]3C[C@H]2C[C@H]3OCc2c(-c3c(Cl)cccc3Cl)noc2C2CC2)cc1F [Compound I-104, 4-[(1S,4S,5R)-5-{[5-cyclopropyl-3-(2,6-dichlorophenyl)-1,2-oxazol-4-yl]methoxy}-2-azabicyclo[2.2.1]heptan-2-yl]-2,6-difluorobenzoic Acid] | 104 | 3.16 | 9.4 | 156 |
| O=C(O)c1cc(F)c(N2C[C@@H]3C[C@H]2C[C@H]3OCc2c(-c3c(Cl)cccc3Cl)noc2C2CC2)cc1F [Compound I-105, 4-[(1S,4S,5R)-5-{[5-cyclopropyl-3-(2,6-dichlorophenyl)-1,2-oxazol-4-yl]methoxy}-2-azabicyclo[2.2.1]heptan-2-yl]-2,5-difluorobenzoic Acid] | 112 | 1.26 | 9.4 | 142 |
| O=C(O)c1ccc(N2C[C@@H]3C[C@H]2C[C@H]3OCc2c(-c3c(Cl)cccc3Cl)noc2C2CC2)c(C(F)(F)F)c1 [Compound I-106, 4-((1S,4S,5R)-5-((5-cyclopropyl-3-(2,6-dichlorophenyl)isoxazol-4-yl)methoxy)-2-azabicyclo[2.2.1]heptan-2-yl)-3-(trifluoromethyl)benzoic acid] | 106 | 0.631 | 8.6 | 126 |
| Cc1cc(C(=O)O)ccc1N1C[C@@H]2C[C@H]1C[C@H]2OCc1c(-c2c(Cl)cccc2Cl)noc1C1CC1 [Compound I-107, 4-((1S,4S,5R)-5-((5-cyclopropyl-3-(2,6-dichlorophenyl)isoxazol-4-yl)methoxy)-2-azabicyclo[2.2.1]heptan-2-yl)-3-methylbenzoic acid] | 102 | 1 | 8.6 | 122 |
| O=C(O)c1ccc(N2C[C@@H]3C[C@H]2C[C@H]3OCc2c(-c3c(Cl)cccc3Cl)noc2C2CC2)c(C2CC2)c1 [Compound I-108, 3-cyclopropyl-4-((1S,4S,5R)-5-((5-cyclopropyl-3-(2,6-dichlorophenyl)isoxazol-4-yl)methoxy)-2-azabicyclo[2.2.1]heptan-2-yl)benzoic acid] | 101 | 3.98 | 9.1 | 117 |
| CCc1cc(C(=O)O)ccc1N1C[C@@H]2C[C@H]1C[C@H]2OCc1c(-c2c(Cl)cccc2Cl)noc1C1CC1 [Compound I-109, 4-((1S,4S,5R)-5-((5-cyclopropyl-3-(2,6-dichlorophenyl)isoxazol-4-yl)methoxy)-2-azabicyclo[2.2.1]heptan-2-yl)-3-ethylbenzoic acid] | 100 | 1.58 | 9.4 | 117 |
| O=C(O)c1ccc(N2C[C@@H]3C[C@H]2C[C@H]3OCc2c(-c3c(Cl)cccc3Cl)noc2C2CC2)c(F)c1F [Compound I-110, 4-((1S,4S,5R)-5-((5-cyclopropyl-3-(2,6-dichlorophenyl)isoxazol-4-yl)methoxy)-2-azabicyclo[2.2.1]heptan-2-yl)-2,3-difluorobenzoic acid] | 111 | 1 | 10 | 132 |
| Cc1cc(N2C[C@@H]3C[C@H]2C[C@H]3OCc2c(-c3c(Cl)cccc3Cl)noc2C2CC2)ccc1C(=O)O [Compound I-111, 4-((1S,4S,5R)-5-((5-cyclopropyl-3-(2,6-dichlorophenyl)isoxazol-4-yl)methoxy)-2-azabicyclo[2.2.1]heptan-2-yl)-2-methylbenzoic acid] | 100 | 1.26 | 9.3 | 132 |
| COc1cc(N2C[C@@H]3C[C@H]2C[C@H]3OCc2c(-c3c(Cl)cccc3Cl)noc2C2CC2)ccc1C(=O)O [Compound I-112, 4-((1S,4S,5R)-5-((5-cyclopropyl-3-(2,6-dichlorophenyl)isoxazol-4-yl)methoxy)-2-azabicyclo[2.2.1]heptan-2-yl)-2-methoxybenzoic acid] | 100 | 5.01 | 9.4 | 116 |
| Cc1cccc(Cl)c1-c1noc(C2CC2)c1CO[C@@H]1C[C@@H]2C[C@H]1CN2c1ccc(C(=O)O)cc1F [Compound I-113, 4-[(1S,4S,5R)-5-[[3-(2-chloro-6-methylphenyl)-5-cyclopropyl-1,2-oxazol-4-yl]methoxy]-2-azabicyclo[2.2.1]heptan-2-yl]-3-fluorobenzoic acid] | 101 | 0.794 | 8.8 | 126 |
| Cc1cccc(Cl)c1-c1noc(C2CC2)c1CO[C@@H]1C[C@@H]2C[C@H]1CN2c1ccc(C(=O)O)cc1 [Compound I-114, 4-[(1S,4S,5R)-5-{[3-(2-chloro-6-methylphenyl)-5-cyclopropyl-1,2-oxazol-4-yl]methoxy}-2-azabicyclo[2.2.1]heptan-2-yl]-benzoic Acid] | 103 | 2.51 |  | 124 |
| Cc1cccc(Cl)c1-c1noc(C2CC2)c1CO[C@@H]1C[C@@H]2C[C@H]1CN2c1ccc(C(=O)O)c(F)c1 [Compound I-115, 4-[(1S,4S,5R)-5-{[3-(2-chloro-6-methylphenyl)-5-cyclopropyl-1,2-oxazol-4-yl]methoxy}-2-azabicyclo[2.2.1]heptan-2-yl]-2-fluorobenzoic Acid] | 108 | 2 | 9.6 | 144 |
| Cc1cccc(C)c1-c1noc(C2CC2)c1CO[C@@H]1C[C@@H]2C[C@H]1CN2c1ccc(C(=O)O)cc1F [Compound I-116, 4-[(1S,4S,5R)-5-{[5-cyclopropyl-3-(2,6-dimethylphenyl)-1,2-oxazol-4-yl]methoxy}-2-azabicyclo[2.2.1]heptan-2-yl]-3-fluorobenzoic Acid] | 102 | 3.98 | 8.6 | 131 |
| Cc1cccc(C)c1-c1noc(C2CC2)c1CO[C@@H]1C[C@@H]2C[C@H]1CN2c1ccc(C(=O)O)cc1 [Compound I-117, 4-[(1S,4S,5R)-5-{[5-cyclopropyl-3-(2,6-dimethylphenyl)-1,2-oxazol-4-yl]methoxy}-2-azabicyclo[2.2.1]heptan-2-yl]benzoic Acid] | 100 | 7.94 | 8.2 | 113 |
| O=C(O)c1ccc(N2C[C@@H]3C[C@H]2C[C@H]3OCc2c(-c3c(F)cccc3Cl)noc2C2CC2)cc1 [Compound I-118, 4-[(1S,4S,5R)-5-{[3-(2-chloro-6-fluorophenyl)-5-cyclopropyl-1,2-oxazol-4-yl]methoxy}-2-azabicyclo[2.2.1]heptan-2-yl]benzoic Acid] | 108 | 7.94 | 8.6 | 145 |
| O=C(O)c1ccc(N2C[C@@H]3C[C@H]2C[C@H]3OCc2c(-c3c(F)cccc3Cl)noc2C2CC2)c(F)c1 [Compound I-119, 4-[(1S,4S,5R)-5-{[3-(2-chloro-6-fluorophenyl)-5-cyclopropyl-1,2-oxazol-4-yl]methoxy}-2-azabicyclo[2.2.1]heptan-2-yl]-3-fluorobenzoic Acid] | 104 | 0.631 | 8.7 | 145 |
| O=C(O)c1ccc(N2C[C@@H]3C[C@H]2C[C@H]3OCc2c(-c3ccccc3C(F)(F)F)noc2C2CC2)cc1 [Compound I-120, 4-[(1S,4S,5R)-5-({5-cyclopropyl-3-[2-(trifluoromethyl)phenyl]-1,2-oxazol-4-yl}methoxy)-2-azabicyclo[2.2.1]heptan-2-yl]benzoic Acid] | 112 | 2 | 8 | 188 |
| O=C(O)c1ccc(N2C[C@@H]3C[C@H]2C[C@H]3OCc2c(-c3ccccc3C(F)(F)F)noc2C2CC2)c(F)c1 [Compound I-121, 4-[(1S,4S,5R)-5-({5-cyclopropyl-3-[2-(trifluoromethyl)phenyl]-1,2-oxazol-4-yl}methoxy)-2-azabicyclo[2.2.1]heptan-2-yl]-3-fluorobenzoic Acid] | 107 | 1.26 |  | 174 |
| O=C(O)c1ccc(N2C[C@@H]3C[C@H]2C[C@H]3OCc2c(-c3c(Cl)cccc3Cl)noc2C2(F)CC2)cc1F [Compound I-122, 4-[(1S,4S,5R)-5-{[3-(2,6-dichlorophenyl)-5-(1-fluorocyclopropyl)-1,2-oxazol-4-yl]methoxy}-2-azabicyclo[2.2.1]heptan-2-yl]-2-fluorobenzoic Acid] | 102 | 1.58 | 9.6 | 137 |
| N#Cc1cc(N2C[C@@H]3C[C@H]2C[C@H]3OCc2c(-c3c(Cl)cccc3Cl)noc2C2(F)CC2)ccc1C(=O)O [Compound I-123, 2-cyano-4-[(1S,4S,5R)-5-{[3-(2,6-dichlorophenyl)-5-(1-fluorocyclopropyl)-1,2-oxazol-4-yl]methoxy}-2-azabicyclo[2.2.1]heptan-2-yl]benzoic Acid] | 99 | 0.501 | 8.6 | 160 |
